Measurements: ChEMBL document CHEMBL4813941, “Secondary Metabolites from the Leather Coral-Derived Fungal Strain Xylaria sp. FM1005 and Their Glycoprotein IIb/IIIa Inhibitory Activity” (J Nat Prod, 2021)
“And” between values parts separate entries of the source, which are not always exact repeats. Identical values can stand only once. The source made the active and inactive calls. The rule behind the calls is not given here.

Key:
[1] = system: Plasma; test: Antiplatelet activity in Sprague-Dawley rat platelet-rich plasma assessed as inhibition of ADP-induced platelet aggregation at 1 ug/ml preincubated for 5 mins followed by ADP addition and measured after 5 mins by light microscopic analysis; format: functional, cell-free; settings: dose 1.0 µg/ml, time 10.0 min
[2] = system: Plasma; test: Antiplatelet activity in Sprague-Dawley rat platelet-rich plasma assessed as inhibition of CaCl2-induced platelet aggregation at 1 ug/ml preincubated for 5 mins followed by CaCl2 addition and measured after 5 mins by light microscopic analysis; format: functional, cell-free; settings: dose 1.0 µg/ml, time 10.0 min
[3] = molecular target: T1, Integrin subunit alpha 2b/beta-3 (Rattus norvegicus) (UniProt D3ZAC0+Q8R2H2); test: (§1) Inhibition of fibrinogen binding to rat platelet integrin alpha2b beta3 by ELISA based solid phase binding assay; format: cell-based
[4] = molecular target: T2, Integrin subunit alpha 2b/beta-3 (Rattus norvegicus, UniProt D3ZAC0+Q8R2H2); test: as §1; format: cell-based
T2 sequence (D3ZAC0 whole entry): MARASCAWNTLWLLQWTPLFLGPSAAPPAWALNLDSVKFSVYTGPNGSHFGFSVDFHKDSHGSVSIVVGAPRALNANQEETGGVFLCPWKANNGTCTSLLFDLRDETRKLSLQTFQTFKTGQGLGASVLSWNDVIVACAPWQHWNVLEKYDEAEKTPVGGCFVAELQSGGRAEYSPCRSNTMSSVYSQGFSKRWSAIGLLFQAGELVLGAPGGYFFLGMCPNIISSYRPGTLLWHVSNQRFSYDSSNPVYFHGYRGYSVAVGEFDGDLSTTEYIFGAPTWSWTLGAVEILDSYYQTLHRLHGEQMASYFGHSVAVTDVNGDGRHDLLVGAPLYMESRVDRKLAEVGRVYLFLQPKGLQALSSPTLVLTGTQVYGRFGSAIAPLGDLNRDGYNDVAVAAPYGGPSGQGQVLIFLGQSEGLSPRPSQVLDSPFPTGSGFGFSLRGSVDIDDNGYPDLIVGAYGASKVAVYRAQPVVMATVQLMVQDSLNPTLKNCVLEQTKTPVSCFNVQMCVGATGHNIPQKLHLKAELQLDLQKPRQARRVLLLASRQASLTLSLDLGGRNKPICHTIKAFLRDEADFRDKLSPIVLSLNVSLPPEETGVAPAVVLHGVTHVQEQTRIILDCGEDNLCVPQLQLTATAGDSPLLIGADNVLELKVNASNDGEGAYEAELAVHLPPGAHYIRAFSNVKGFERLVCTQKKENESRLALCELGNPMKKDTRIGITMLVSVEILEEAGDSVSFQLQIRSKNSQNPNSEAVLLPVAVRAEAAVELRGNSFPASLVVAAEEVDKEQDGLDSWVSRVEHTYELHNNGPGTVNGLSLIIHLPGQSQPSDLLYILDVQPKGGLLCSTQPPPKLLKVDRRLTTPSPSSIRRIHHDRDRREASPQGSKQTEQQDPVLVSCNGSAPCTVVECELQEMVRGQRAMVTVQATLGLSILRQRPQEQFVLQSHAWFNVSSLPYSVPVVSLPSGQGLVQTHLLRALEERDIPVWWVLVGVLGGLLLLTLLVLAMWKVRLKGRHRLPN
T2 sequence (Q8R2H2 whole entry): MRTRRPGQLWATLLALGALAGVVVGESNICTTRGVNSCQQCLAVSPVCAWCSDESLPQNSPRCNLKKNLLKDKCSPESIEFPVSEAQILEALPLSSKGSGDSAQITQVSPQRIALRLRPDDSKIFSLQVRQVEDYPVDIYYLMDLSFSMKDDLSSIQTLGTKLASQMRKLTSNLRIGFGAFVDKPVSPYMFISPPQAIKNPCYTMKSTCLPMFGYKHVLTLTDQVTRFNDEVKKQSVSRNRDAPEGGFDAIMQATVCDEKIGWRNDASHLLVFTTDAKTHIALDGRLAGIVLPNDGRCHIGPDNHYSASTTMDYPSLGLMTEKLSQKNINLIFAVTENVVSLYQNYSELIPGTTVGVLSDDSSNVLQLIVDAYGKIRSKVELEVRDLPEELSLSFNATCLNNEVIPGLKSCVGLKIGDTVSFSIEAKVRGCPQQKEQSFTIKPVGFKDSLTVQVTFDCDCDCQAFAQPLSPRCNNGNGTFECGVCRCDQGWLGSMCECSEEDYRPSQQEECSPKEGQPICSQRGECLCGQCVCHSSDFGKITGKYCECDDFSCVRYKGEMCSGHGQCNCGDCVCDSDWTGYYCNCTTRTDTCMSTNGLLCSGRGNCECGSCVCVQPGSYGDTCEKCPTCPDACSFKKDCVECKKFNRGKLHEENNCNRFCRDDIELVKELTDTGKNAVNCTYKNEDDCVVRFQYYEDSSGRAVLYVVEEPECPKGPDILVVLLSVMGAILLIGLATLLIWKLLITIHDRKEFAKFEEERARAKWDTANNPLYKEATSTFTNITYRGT

[5] = system: Staphylococcus aureus; test: Antibacterial activity against Staphylococcus aureus at 80 ug/ml incubated for 24 hrs by resazurin dye based broth microdilution method; format: functional, organism-based; settings: dose 80.0 µg/ml
[6] = system: Bacillus subtilis; test: Antibacterial activity against Bacillus subtilis at 80 ug/ml incubated for 24 hrs by resazurin dye based broth microdilution method; format: functional, organism-based; settings: dose 80.0 µg/ml
[7] = system: Pseudomonas aeruginosa; test: Antibacterial activity against Pseudomonas aeruginosa at 80 ug/ml incubated for 24 hrs by resazurin dye based broth microdilution method; format: functional, organism-based; settings: dose 80.0 µg/ml
[8] = system: Escherichia coli; test: Antibacterial activity against Escherichia coli at 80 ug/ml incubated for 24 hrs by resazurin dye based broth microdilution method; format: functional, organism-based; settings: dose 80.0 µg/ml
[9] = system: A2780; test: Antiproliferative activity against human A2780 cells at 40 uM incubated for 72 hrs by CyQuant assay; format: cell-based; settings: a2780, 72 h
[10] = system: HEK293; test: Antiproliferative activity against human HEK293 cells at 40 uM by SRB assay; format: cell-based; settings: hek293, 40 µM
[11] = molecular target: T1, Integrin subunit alpha 2b/beta-3 (Rattus norvegicus); test: Inhibition of fibrinogen binding to rat platelet integrin alpha2b beta3 at 1 ug/ml by ELISA based solid phase binding assay; format: cell-based; settings: dose 1.0 µg/ml

SMILES | inhibition [3] | IC50 [4] | inhibition [11] | Activity [1] | Activity [2] | Activity [5] | Activity [6] | Activity [7] | Activity [8] | Activity [9] | Activity [10]
CC#CCOc1ccc(C[C@H](NC(=O)CCCCC)C(=O)OC)cc1 | Dose-Dependent Effect | 890 nM and 897 nM | – | Active | Active | inactive | inactive | inactive | inactive | Non-Toxic | Non-Toxic
C/C(=C/COc1ccc(CC(=O)O)cc1)C(=O)O | – | – | inactive | inactive | inactive | inactive | inactive | inactive | inactive | Non-Toxic | Non-Toxic
CC#CCOc1ccc(C[C@H](NC(=O)CCC)C(=O)O)cc1 | – | – | inactive | inactive | inactive | inactive | inactive | inactive | inactive | Non-Toxic | Non-Toxic
CC#CCOc1ccc(C[C@H](NC(=O)CCCC)C(=O)O)cc1 | – | – | inactive | inactive | inactive | inactive | inactive | inactive | inactive | Non-Toxic | Non-Toxic

More lines, main results first:

inhibition [3] | IC50 [4] | inhibition [11] | SMILES | Activity [1] | Activity [2] | Activity [5] | Activity [6] | Activity [7] | Activity [8] | Activity [9] | Activity [10]
– | – | inactive | CCCCCC(=O)N[C@@H](Cc1ccc(OCC#CCO)cc1)C(=O)O | inactive | inactive | inactive | inactive | inactive | inactive | Non-Toxic | Non-Toxic
Dose-Dependent Effect | 610 nM and 603 nM | – | CC#CCOc1ccc(C[C@H](NC(=O)CCCCC)C(=O)O)cc1 | Active | Active | inactive | inactive | inactive | inactive | Non-Toxic | Non-Toxic
– | 130 nM and 136 nM | – | CCCCS(=O)(=O)N[C@@H](Cc1ccc(OCCCCC2CCNCC2)cc1)C(=O)O [TIROFIBAN] | – | – | – | – | – | – | – | –
